What all share (format): cell-based
Data set [1] relates to STAT- and MAPK-related signal paths. The experiment in a line: Protein expression of STAT- and MAPK-related signal paths in normal liver cell line. The procedure: (§1) Please refer to FIG. 17A to FIG. 18B, which are views showing epithelial cell line of normal liver treated with MPA+leptin for 24 hours and 48 hours respectively; and views showing STAT3- and MAPK-related signal paths after treating cell line of normal liver with MPA+leptin. As shown in the figures, after epithelial cell line of normal liver (THLE-3) is applied with MPA+leptin for […], MPA+leptin's effect on cell growth (i.e. survival rate) is analyzed through XTT assay. […] Besides, in FIG. 18A and FIG. 18B, protein expressions for STAT- and MAPK-related signal paths are analyzed.

Data set [2] relates to epithelial cell line of normal liver (THLE-3). The data set can be described thus: XTT assay, survival of normal liver epithelial cell line. The note with it: THLE-3, FIG. 17A. As for the experimental part: as §1
Data set [3] deals with liver cancer cells (hepatocellular carcinoma cell line). The experiment in a line: XTT assay, growth of liver cancer cells. The note with it: high-dose leptin (100 ng), 24 hours. The procedure:
Please refer to FIG. 2, which is a view showing leptin's effect on growth of liver cancer cells. As shown in the figure, for acquiring effect of leptin on liver cancer cells, the preferred embodiment uses leptin having different doses, where the high-dose leptin has 100 nano-grams (ng) and the low-dose leptin has 10 ng. The 10 ng leptin is conformed to the physiological concentration of normal human body for observing effect of leptin on the cells. In the other hand, the 100 ng leptin is used to show whether a higher levels of leptin obtains a higher effect on the cells.
Please refer to FIG. 3, which is a view showing MPA's effect on growth of liver cancer cells. As shown in the figure, the preferred embodiment applies MPA having different doses to liver cancer cells.
Please refer to FIG. 4, which is a view showing effect of MPA+leptin on growth of liver cancer cells. As shown in the figure, the preferred embodiment applies MPA combined with leptin to liver cancer cells, where MPA has different doses and leptin has different doses.
Please refer to FIG. 9, which is a view showing reduced effect of MPA+leptin by suppressing leptin receptor expression. As shown in the figure, a 20 nano-moles (nM) of leptin receptor, siRNA, is transferred to cells to be cultured a day and is cultured in a serum-free medium for the next day. Then, the cells are processed with MPA+leptin for 24 hours to be analyzed through XTT assay. […] Thus, it is confirmed that leptin enhances MPA's suppression on the cells through the leptin receptor.
Please refer to FIG. 10A and FIG. 10B, which are views showing apoptosis of cells on increasing expression of leptin receptor and expression of progesterone receptor respectively. As shown in the figures, the preferred embodiment makes ob-Rb plasmid transfected to cells to be cultured a day and is cultured in a serum-free medium for the next day. Then, the cells are processed with MPA+leptin for 24 hours to be analyzed through XTT assay. […] Besides, the long-form Ob-R enhances expression of the progesterone receptor. Again, the preferred embodiment makes PgR plasmid transfected to cells to be cultured a day and is cultured in a serum-free medium for the next day. Then, the cells are processed with MPA+leptin for 24 hours to be analyzed through XTT assay.
Please refer to FIG. 15A to FIG. 16B, which are views showing cells containing very much leptin within; suppressed growth of the cells by using MPA; and STAT3- and MAPK-signal paths of the cells after MPA is applied. As shown in the figures, while leptin is added from outside in state 13 to suppress liver cancer cells with MPA+leptin, the preferred embodiment here transfers expression plasmid of leptin (pcLeptin) to liver cancer cells to be cultured for a day; and a serum-free medium is used for the next day. Then, after the cells are processed with 10^−4M MPA for 24 hours, cell growth is analyzed through XTT assay. In FIG. 15A, leptin gene is transferred to cells for a short time for obtaining very much leptin within the cells by themselves. After applying MPA to the cells for 24 hours, it is confirmed that MPA's suppression on liver cancer cells is enhanced by a lot of leptin self-generated within the cells. Moreover, after obtaining a lot of leptin, medium is collected for immunoprecipitation and further western blotting. […] Then, after the cells are processed with 10^−4 M MPA for 24 hours, JAK/STAT-related proteins are analyzed through western blotting.
(Tetrazolium dyes change colour on reduction, which living cells bring about.)

Another data set concerns MAPK path. The experiment in a line: Western blotting of MAPK path proteins in liver cancer cells. The note with it: 10^-6 M U0126 for 4 hours, then MPA+leptin for 3 hours. An excerpt:
Please refer to FIG. 12, which is a view showing expression of MAPK path after applied with a drug. As shown in the figure, after proteins for the JAK2/STAT3 path are suppressed, the preferred embodiment analyzes expression of the proteins through western blotting.
(§2) Please refer to FIG. 13A and FIG. 13A, which are views showing expressions of proteins of JAK/STAT path and proteins of MAPK path after applied with a drug for a short time. As shown in the figures, the preferred embodiment processes liver cancer cells with high-dose leptin, high-dose MPA and high-dose leptin combined with high-dose MPA for 30 minutes. Then, related JAK/STAT proteins are collected for analyzing their expressions through western blotting.
Please refer to FIG. 14, which is a view showing reduced p-STAT3 degradation by suppressing the ERK1/2 activation and the PIAS3 expression. […]
(§3) Please refer to FIG. 15A to FIG. 16B, which are views showing cells containing very much leptin within; suppressed growth of the cells by using MPA; and STAT3- and MAPK-signal paths of the cells after MPA is applied. […] Then, after the cells are processed with 10^−4M MPA for 24 hours, cell growth is analyzed through XTT assay. […] Then, after the cells are processed with 10^−4 M MPA for 24 hours, JAK/STAT-related proteins are analyzed through western blotting.
A general note: Immunoblotting shows a protein as a band on a membrane.

The next data set has as its system JAK/STAT path. The experiment in a line: Western blotting of JAK/STAT path proteins in liver cancer cells. The note with it: 10^-6 M U0126 for 4 hours, then MPA+leptin for 3 hours. The procedure:
Please refer to FIG. 11, which is a view showing expression of JAK/STAT path after applied with a drug. As shown in the figure, the preferred embodiment analyzes related proteins of liver cancer cells through western blotting after applied with MPA+leptin for 24 hours.
as §2
Please refer to FIG. 14, which is a view showing reduced p-STAT3 degradation by suppressing the ERK1/2 activation and the PIAS3 expression. […] The preferred embodiment uses a 10^−6M p-ERK1/2 inhibitor (U0126) for 4 hours before a drug is applied; then, liver cancer cells are applied with the drug of MPA+leptin for 3 hours to collect cellular proteins for analyzing expression of related proteins through western blotting. […] As a conclusion, MPA activates ERK1/2 to indirectly induce PIAS3 expression for suppressing p-STAT3 (Tyr705) for cell apoptosis, where leptin enhances activation of ERK1/2 with MPA for increasing cell apoptosis.
as §3

Turning to “leptin: hormone of single-chain protein; adipokine generated by adipocyte”, the “effect on STAT- and MAPK-related signal proteins” value in data set [1] was “no obvious effect”. Besides, in data set [2], the “effect on survival rate of, and poisoning of, normal liver epithelial cells” value is reported as “no obvious effect”. In addition, the “effect on growth of liver cancer cells” value in data set [3] is reported as “no obvious effect”.

Turning to `N#CC(=C(/N)Sc1ccccc1N)/C(C#N)=C(\N)Sc1ccccc1N` [U0126], in the data set with MAPK path, the PIAS3 result is recorded as “not induced” and the “phosphorylation of ERK1/2” value is recorded as “suppressed”. For the same compound, in the data set on JAK/STAT path, the “expression of p-STAT3 (Tyr705)” value was “suppressed”.

For the origin of these results see patent US20110098219A1, “System for Curing Hepatic Cancer with Leptin” (KAOHSIUNG MEDICAL UNIVERSITY, priority 2009, published 2011).
